Reference: patent US20240101521A1, “DIAMINOTRIAZINE COMPOUNDS” (BASF SE, priority 2021, published 2024)

What was measured:
Experiment in all cases: greenhouse pre-emergence herbicidal test
Type in all cases: in vivo
Details in all cases: scale 0 to 100
Echinochloa crus-galli = tested on: Echinochloa crus-galli
From the text: (§1) The culture containers used were plastic flowerpots containing loamy sand with approximately 3.0% of humus as the substrate. The seeds of the test plants were sown separately for each species.
(§2) For the pre-emergence treatment, the active ingredients, which had been suspended or emulsified in water, were applied directly after sowing by means of finely distributing nozzles. The containers were irrigated gently to promote germination and growth and subsequently covered with transparent plastic hoods until the plants had rooted. This cover caused uniform germination of the test plants, unless this had been impaired by the active ingredients. For the post-emergence treatment, the test plants were first grown to a height of 3 to 15 cm, depending on the plant habit, and only then treated with the active ingredients which had been suspended or emulsified in water. For this purpose, the test plants were either sown directly and grown in the same containers, or they were first grown separately as seedlings and transplanted into the test containers a few days prior to treatment.
(§3) Depending on the species, the plants were kept at 10-25° C. or 20-35° C., respectively.
(§4) The test period extended over 2 to 4 weeks. During this time, the plants were tended, and their response to the individual treatments was evaluated.
(§5) Evaluation was carried out using a scale from 0 to 100. 100 means no emergence of the plants, or complete destruction of at least the aerial moieties, and 0 means no damage, or normal course of growth. A moderate herbicidal activity is given at values of at least 60, a good herbicidal activity is given at values of at least 70, and a very good herbicidal activity is given at values of at least 85.
(§6) The plants used in the greenhouse experiments were of the following species: […]

Amaranthus retroflexus = tested on: Amaranthus retroflexus
From the text: as §1, §2, §3, §4, §5, §6

Setaria faberi = tested on: Setaria faberi
From the text: as §1, §2, §3, §4, §5, §6

SMILES | herbicidal activity (Echinochloa crus-galli; pre-emergence, 62,5 g/ha) | herbicidal activity (Amaranthus retroflexus; pre-emergence, 62,5 g/ha) | herbicidal activity (Setaria faberi; pre-emergence, 62,5 g/ha) | herbicidal activity (Echinochloa crus-galli; pre-emergence, 62 g/ha) | herbicidal activity (Amaranthus retroflexus; pre-emergence, 62 g/ha) | herbicidal activity (Setaria faberi; pre-emergence, 62 g/ha) | also measured
CCOc1c(Br)cc(F)c(F)c1Nc1nc(N)nc(C2(F)CCCC2)n1 [Example 21] | 100% | 95% | 100% |  |  |  | 
CCC#CCOc1c(Br)cc(F)c(F)c1Nc1nc(N)nc(C2(F)CCCC2)n1 [Example 22] | 85% | 85% | 100% |  |  |  | 
CCOc1c(Cl)cc(F)c(F)c1Nc1nc(N)nc(C(C)(C)F)n1 [Example 23] | 100% | 100% | 100% |  |  |  | 
CCC#CCOc1c(Cl)cc(F)c(F)c1Nc1nc(N)nc(C(C)(C)F)n1 [Example 24] | 100% | 100% | 100% |  |  |  | 
COc1c(Br)ccc(F)c1Nc1nc(N)nc(C2(F)CCCC2)n1 [Example 25] |  |  |  |  |  |  | herbicidal activity (Echinochloa crus-galli; pre-emergence, 250 g/ha): 100%; herbicidal activity (Amaranthus retroflexus; pre-emergence, 250 g/ha): 100%; herbicidal activity (Setaria faberi; pre-emergence, 250 g/ha): 100%
COCOc1c(Br)ccc(F)c1Nc1nc(N)nc(C(C)(C)F)n1 [Example 26] |  |  |  |  |  |  | herbicidal activity (Echinochloa crus-galli; pre-emergence, 250 g/ha): 100%; herbicidal activity (Amaranthus retroflexus; pre-emergence, 250 g/ha): 100%; herbicidal activity (Setaria faberi; pre-emergence, 250 g/ha): 100%
C#CCOc1c(Br)cc(F)c(F)c1Nc1nc(N)nc(C2(F)CCCC2)n1 [Example 27] |  |  |  |  |  |  | herbicidal activity (Amaranthus retroflexus; pre-emergence, 31 g/ha): 100%; herbicidal activity (Setaria faberi; pre-emergence, 31 g/ha): 100%
C#CCOc1c(Cl)cc(F)c(F)c1Nc1nc(N)nc(C(C)(C)F)n1 [Example 28] | 100% | 100% | 100% |  |  |  | 
COc1c(Cl)cc(F)c(F)c1Nc1nc(N)nc(C(C)Cl)n1 (stereo not shown) [Example 38] | 100% | 100% | 100% |  |  |  | 
COc1c(Cl)cc(F)c(F)c1Nc1nc(N)nc(C(C)F)n1 (stereo not shown) [Example 39] | 100% | 100% | 100% |  |  |  | 
COc1c(Cl)cc(F)c(F)c1Nc1nc(N)nc(C(F)C2CC2)n1 (stereo not shown) [Example 40] | 100% | 100% | 100% |  |  |  | 
CCOc1c(Cl)ccc(F)c1Nc1nc(N)nc(C(C)(C)F)n1 [Example 41] | 100% | 100% | 100% |  |  |  | 
CC#CCOc1c(Cl)ccc(F)c1Nc1nc(N)nc(C(C)(C)F)n1 [Example 42] |  |  |  |  |  |  | herbicidal activity (Echinochloa crus-galli; pre-emergence, 31 g/ha): 100%; herbicidal activity (Amaranthus retroflexus; pre-emergence, 31 g/ha): 100%; herbicidal activity (Setaria faberi; pre-emergence, 31 g/ha): 100%
COc1c(Cl)ccc(F)c1Nc1nc(N)nc(C(C)F)n1 (stereo not shown) [Example 43] | 100% | 100% | 100% |  |  |  | 
COc1c(Br)ccc(F)c1Nc1nc(N)nc(C(C)F)n1 (stereo not shown) [Example 44] | 100% | 100% | 100% |  |  |  | 
CCOc1c(Br)ccc(F)c1Nc1nc(N)nc(C(C)(C)F)n1 [Example 45] | 100% | 100% | 100% |  |  |  | 
CC#CCOc1c(Br)ccc(F)c1Nc1nc(N)nc(C(C)(C)F)n1 [Example 46] | 100% | 100% | 100% |  |  |  | 
CC#CCOc1c(Br)cc(F)c(F)c1Nc1nc(N)nc(C(C)(F)F)n1 [Example 47] | 100% | 100% | 100% |  |  |  | 
COc1c(Cl)ccc(F)c1Nc1nc(N)nc(C(C)(F)F)n1 [Example 48] |  |  |  |  |  |  | herbicidal activity (Echinochloa crus-galli; pre-emergence, 31 g/ha): 70%; herbicidal activity (Amaranthus retroflexus; pre-emergence, 31 g/ha): 100%; herbicidal activity (Setaria faberi; pre-emergence, 31 g/ha): 100%
CCC(C)(F)c1nc(N)nc(Nc2c(F)c(Cl)cc(Cl)c2OC)n1 (stereo not shown) [Example 62] |  |  |  |  |  |  | herbicidal activity (Echinochloa crus-galli; pre-emergence, 31 g/ha): 100%; herbicidal activity (Amaranthus retroflexus; pre-emergence, 31 g/ha): 100%; herbicidal activity (Setaria faberi; pre-emergence, 31 g/ha): 100%

SMILES | herbicidal activity (Echinochloa crus-galli; pre-emergence, 62,5 g/ha) | herbicidal activity (Amaranthus retroflexus; pre-emergence, 62,5 g/ha) | herbicidal activity (Setaria faberi; pre-emergence, 62,5 g/ha) | herbicidal activity (Echinochloa crus-galli; pre-emergence, 62 g/ha) | herbicidal activity (Amaranthus retroflexus; pre-emergence, 62 g/ha) | herbicidal activity (Setaria faberi; pre-emergence, 62 g/ha) | also measured
CCOc1c(Br)cc(Br)c(F)c1Nc1nc(N)nc(C(C)(C)F)n1 [Example 66] |  |  |  | 100% | 100% | 100% | 
C#CCOc1c(C)cc(Br)c(F)c1Nc1nc(N)nc(C(C)(C)F)n1 [Example 67] |  |  |  | 100% | 100% | 100% | 
CC#CCOc1c(C)cc(Br)c(F)c1Nc1nc(N)nc(C(C)(C)F)n1 [Example 68] |  |  |  | 100% | 100% | 100% | 
COc1c(C)ccc(F)c1Nc1nc(N)nc(C(C)(C)F)n1 [Example 69] |  |  |  | 100% | 100% | 100% | 
CC#CCOc1c(C)ccc(F)c1Nc1nc(N)nc(C(C)(C)F)n1 [Example 70] |  |  |  | 100% | 100% | 100% | 
C#CCOc1c(C)ccc(F)c1Nc1nc(N)nc(C(C)(C)F)n1 [Example 71] |  |  |  | 100% | 100% | 100% | 
COc1c(Cl)cc(Cl)c(F)c1Nc1nc(N)nc(C2(F)CC2)n1 [Example 72] |  |  |  | 100% | 100% | 100% | 
COc1c(Br)cc(C)c(F)c1Nc1nc(N)nc(C(C)(C)F)n1 [Example 73] |  |  |  | 100% | 100% | 100% | 
C#CCOc1c(Br)cc(C)c(F)c1Nc1nc(N)nc(C(C)(C)F)n1 [Example 74] |  |  |  | 100% | 100% | 100% | 
CC#CCOc1c(Br)cc(C)c(F)c1Nc1nc(N)nc(C(C)(C)F)n1 [Example 75] |  |  |  | 100% | 100% | 100% | 
COc1c(Br)cc(Cl)c(F)c1Nc1nc(N)nc(C(C)(C)F)n1 [Example 76] |  |  |  | 100% | 100% | 100% | 
C#CCOc1c(Br)cc(Cl)c(F)c1Nc1nc(N)nc(C(C)(C)F)n1 [Example 77] |  |  |  | 100% | 100% | 100% | 
CC#CCOc1c(Br)cc(Cl)c(F)c1Nc1nc(N)nc(C(C)(C)F)n1 [Example 78] |  |  |  | 100% | 100% | 100% | 
CC(C)(F)c1nc(N)nc(Nc2c(F)c(F)cc(Cl)c2OC(F)F)n1 [Example 80] |  |  |  | 100% | 100% | 100% | 
CC#CCOc1c(Cl)cc(F)c(F)c1Nc1nc(N)nc(C(C)(C)OC)n1 [Example 82] |  |  |  | 100% | 100% | 100% | 
CCOc1c(Cl)cc(Cl)c(F)c1Nc1nc(N)nc(C(C)(C)F)n1 [Example 83] |  |  |  | 100% | 100% | 100% | 
C#CCOc1c(Cl)cc(F)c(F)c1Nc1nc(N)nc(C(C)(F)CCl)n1 (stereo not shown) [Example 86] |  |  |  | 100% | 100% | 100% | 
C#CCOc1c(Br)cc(F)c(F)c1Nc1nc(N)nc(C(C)(C)OC)n1 [Example 87] |  |  |  | 100% | 100% | 100% | 
C#CCOc1c(Cl)cc(F)c(F)c1Nc1nc(N)nc(C(C)(C)OC)n1 [Example 88] |  |  |  | 100% | 100% | 100% | 
CC#CC(C)Oc1c(Br)cc(F)c(F)c1Nc1nc(N)nc(C2(F)CCCC2)n1 (stereo not shown) [Example 96] |  |  |  | 70% |  | 75% | 
